Experimental data reported in PubChem BioAssay (NCI).
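Briefly, cells in 96-well plates were exposed to five compound concentrations for 48 h, and endpoints were estimated by linear interpolation. At the TGI there is no net growth.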

How the values were obtained:
Test in all cases: DTP human tumour cell line panel, 48 h
SNB-19 CNS = tested on: SNB-19 CNS
HCT-15 colon = tested on: HCT-15 colon
IGROV1 ovarian = tested on: IGROV1 ovarian
HL-60(TB) leukemia = tested on: HL-60(TB) leukemia
UACC-257 melanoma = tested on: UACC-257 melanoma
MALME-3M melanoma = tested on: MALME-3M melanoma
MOLT-4 leukemia = tested on: MOLT-4 leukemia
HOP-62 NSCLC = tested on: HOP-62 NSCLC
K-562 leukemia = tested on: K-562 leukemia
MDA-N = tested on: MDA-N

## CNCC(SC)c1ccc(O)c(O)c1 (stereo not given)
SNB-19 CNS
  TGI: > 100 µM
HCT-15 colon
  TGI: > 100 µM
IGROV1 ovarian
  TGI: > 100 µM
HL-60(TB) leukemia
  TGI: 37.5 µM
UACC-257 melanoma
  TGI: 27.9 µM
MALME-3M melanoma
  TGI: 32.4 µM
MOLT-4 leukemia
  TGI: 47.2 µM
HOP-62 NSCLC
  TGI: > 100 µM
K-562 leukemia
  TGI: 59 µM
MDA-N
  TGI: 38.1 µM

## CC12CC(c3ccccc3O1)C(C(=O)Nc1nccs1)C(=O)N2 (stereo not given)
SNB-19 CNS
  TGI: > 100 µM
HCT-15 colon
  TGI: > 100 µM
IGROV1 ovarian
  TGI: > 100 µM
HL-60(TB) leukemia
  TGI: > 100 µM
UACC-257 melanoma
  TGI: > 100 µM
MALME-3M melanoma
  TGI: > 100 µM
MOLT-4 leukemia
  TGI: > 100 µM
HOP-62 NSCLC
  TGI: > 100 µM
K-562 leukemia
  TGI: > 100 µM
MDA-N
  TGI: > 100 µM

## CN1COCN=C1NC#N
SNB-19 CNS
  TGI: > 100 µM
HCT-15 colon
  TGI: > 100 µM
IGROV1 ovarian
  TGI: > 100 µM
HL-60(TB) leukemia
  TGI: > 100 µM
UACC-257 melanoma
  TGI: > 100 µM
MALME-3M melanoma
  TGI: > 100 µM
MOLT-4 leukemia
  TGI: > 100 µM
HOP-62 NSCLC
  TGI: > 100 µM
K-562 leukemia
  TGI: > 100 µM

## C[C@H](CCc1nc(C#N)c(N)o1)[C@H]1CC[C@H]2[C@@H]3CCC4C[C@@H](O)CC[C@]4(C)[C@H]3C[C@@H](O)[C@]12C (stereo not given in full)
SNB-19 CNS
  TGI: 31 µM
HCT-15 colon
  TGI: 29.5 µM
IGROV1 ovarian
  TGI: 25.6 µM
HL-60(TB) leukemia
  TGI: 2.38 µM
UACC-257 melanoma
  TGI: 20.4 µM
MALME-3M melanoma
  TGI: 28.4 µM
MOLT-4 leukemia
  TGI: 20.2 µM
HOP-62 NSCLC
  TGI: 40.8 µM
K-562 leukemia
  TGI: 39.6 µM
MDA-N
  TGI: 30.9 µM

## c1ccc(C2N=C(c3ccccn3)C(c3ccccn3)=NC2c2ccccc2)cc1 (stereo not given)
SNB-19 CNS
  TGI: > 100 µM
HCT-15 colon
  TGI: > 100 µM
IGROV1 ovarian
  TGI: > 100 µM
HL-60(TB) leukemia
  TGI: > 100 µM
UACC-257 melanoma
  TGI: > 100 µM
MALME-3M melanoma
  TGI: > 100 µM
MOLT-4 leukemia
  TGI: > 100 µM
HOP-62 NSCLC
  TGI: > 100 µM
K-562 leukemia
  TGI: > 100 µM

## CC(=O)c1c(-c2ccco2)c(C#N)c(=S)n(C2OC(CO)C(O)C(O)C2O)c1C (stereo not given)
SNB-19 CNS
  TGI: > 100 µM
HCT-15 colon
  TGI: > 100 µM
IGROV1 ovarian
  TGI: > 100 µM
HL-60(TB) leukemia
  TGI: > 100 µM
UACC-257 melanoma
  TGI: > 100 µM
MALME-3M melanoma
  TGI: > 100 µM
MOLT-4 leukemia
  TGI: > 100 µM
HOP-62 NSCLC
  TGI: > 100 µM
K-562 leukemia
  TGI: > 100 µM
MDA-N
  TGI: > 100 µM

## C#CC(O)/C=C/C(O)CCCC(O)CC#CC(O)C#CCCCCC(O)/C=C/CCCC(=O)CCCCCCCCCCCCCCCC(O)C(O)C#CC(=O)O (stereo not given)
SNB-19 CNS
  TGI: > 25 µM
HCT-15 colon
  TGI: > 25 µM
IGROV1 ovarian
  TGI: > 25 µM
HL-60(TB) leukemia
  TGI: > 25 µM
UACC-257 melanoma
  TGI: > 25 µM
MALME-3M melanoma
  TGI: > 25 µM
MOLT-4 leukemia
  TGI: > 25 µM
HOP-62 NSCLC
  TGI: > 25 µM
K-562 leukemia
  TGI: > 25 µM
MDA-N
  TGI: > 25 µM

## COc1ccc(N=C(C)C(C)=Nc2ccc(OC)cc2)cc1
SNB-19 CNS
  TGI: > 100 µM
HCT-15 colon
  TGI: > 100 µM
IGROV1 ovarian
  TGI: > 100 µM
HL-60(TB) leukemia
  TGI: > 100 µM
UACC-257 melanoma
  TGI: > 100 µM
MALME-3M melanoma
  TGI: > 100 µM
MOLT-4 leukemia
  TGI: > 100 µM
HOP-62 NSCLC
  TGI: > 100 µM
K-562 leukemia
  TGI: > 100 µM

## COC(=O)c1c(CC(=O)OC(C)C)cc2n(c1=O)Cc1c-2nc2ccccc2c1OC
SNB-19 CNS
  TGI: > 100 µM
HCT-15 colon
  TGI: > 100 µM
IGROV1 ovarian
  TGI: > 100 µM
HL-60(TB) leukemia
  TGI: > 100 µM
UACC-257 melanoma
  TGI: > 100 µM
MALME-3M melanoma
  TGI: > 100 µM
MOLT-4 leukemia
  TGI: > 100 µM
HOP-62 NSCLC
  TGI: > 100 µM
K-562 leukemia
  TGI: > 100 µM

## O=C1OC2(CCCCC2)C(Oc2ccc(Cl)cc2)=C1F
SNB-19 CNS
  TGI: > 100 µM
IGROV1 ovarian
  TGI: > 100 µM
HL-60(TB) leukemia
  TGI: 62.8 µM
UACC-257 melanoma
  TGI: 66.8 µM
MALME-3M melanoma
  TGI: 51.6 µM
MOLT-4 leukemia
  TGI: 48.5 µM
HOP-62 NSCLC
  TGI: > 100 µM
K-562 leukemia
  TGI: > 100 µM
MDA-N
  TGI: > 100 µM

## Cc1ccc(N=Nc2c(O)ccc3ccccc23)c(C)c1
SNB-19 CNS
  TGI: > 100 µM
HCT-15 colon
  TGI: > 100 µM
IGROV1 ovarian
  TGI: > 100 µM
UACC-257 melanoma
  TGI: > 100 µM
MOLT-4 leukemia
  TGI: > 100 µM
HOP-62 NSCLC
  TGI: > 100 µM
K-562 leukemia
  TGI: > 100 µM
MDA-N
  TGI: > 100 µM

## Cc1noc(-c2ccc(C(=O)O)[nH]2)c1Br
SNB-19 CNS
  TGI: > 100 µM
HCT-15 colon
  TGI: > 100 µM
IGROV1 ovarian
  TGI: > 100 µM
UACC-257 melanoma
  TGI: > 100 µM
MALME-3M melanoma
  TGI: > 100 µM
MOLT-4 leukemia
  TGI: > 100 µM
HOP-62 NSCLC
  TGI: 77.3 µM
K-562 leukemia
  TGI: > 100 µM
MDA-N
  TGI: > 100 µM

## Cc1oc(N)c(S(=O)(=O)/C(C#N)=C/c2ccccc2[N+](=O)[O-])c1C
SNB-19 CNS
  TGI: 77.4 µM
HCT-15 colon
  TGI: > 100 µM
IGROV1 ovarian
  TGI: > 100 µM
UACC-257 melanoma
  TGI: > 100 µM
MALME-3M melanoma
  TGI: > 100 µM
MOLT-4 leukemia
  TGI: 62.5 µM
HOP-62 NSCLC
  TGI: > 100 µM
K-562 leukemia
  TGI: 60.4 µM
MDA-N
  TGI: 46.9 µM

## Cc1cc2ccccc2n2c1nc1ccc(O)cc12
SNB-19 CNS
  TGI: > 10 µM
HCT-15 colon
  TGI: > 10 µM
IGROV1 ovarian
  TGI: > 10 µM
HL-60(TB) leukemia
  TGI: > 10 µM
UACC-257 melanoma
  TGI: > 10 µM
MALME-3M melanoma
  TGI: > 10 µM
MOLT-4 leukemia
  TGI: > 10 µM
HOP-62 NSCLC
  TGI: > 10 µM
K-562 leukemia
  TGI: > 10 µM

## NCCCNCCSP(=O)(O)O
SNB-19 CNS
  TGI: > 750 µM
HCT-15 colon
  TGI: > 645 µM
IGROV1 ovarian
  TGI: > 750 µM
HL-60(TB) leukemia
  TGI: > 721 µM
UACC-257 melanoma
  TGI: > 750 µM
MALME-3M melanoma
  TGI: > 726 µM
MOLT-4 leukemia
  TGI: > 750 µM
HOP-62 NSCLC
  TGI: > 750 µM
K-562 leukemia
  TGI: > 750 µM

## C[C@@H]1C[C@@H]2OC(=O)[C@]3(C)[C@H]2[C@@H](OC3(C)O)[C@]2(C)C(=O)C=C[C@@H]12 (stereo not given in full)
SNB-19 CNS
  TGI: > 100 µM
HCT-15 colon
  TGI: 30.2 µM
HL-60(TB) leukemia
  TGI: 11.2 µM
UACC-257 melanoma
  TGI: 50.2 µM
MALME-3M melanoma
  TGI: 30.7 µM
MOLT-4 leukemia
  TGI: 39.7 µM
HOP-62 NSCLC
  TGI: > 100 µM
K-562 leukemia
  TGI: 2.69 µM
MDA-N
  TGI: 35.5 µM

## O=S1(=O)N=C(SCc2c[nH]c3ccccc23)N(c2ccccc2)c2ccncc21
SNB-19 CNS
  TGI: > 100 µM
HCT-15 colon
  TGI: > 100 µM
HL-60(TB) leukemia
  TGI: > 100 µM
UACC-257 melanoma
  TGI: > 100 µM
MALME-3M melanoma
  TGI: > 100 µM
MOLT-4 leukemia
  TGI: > 100 µM
HOP-62 NSCLC
  TGI: > 100 µM
K-562 leukemia
  TGI: > 100 µM
MDA-N
  TGI: > 100 µM

## CSCSCC(CO)NC(=O)/C=C\c1c(C)[nH]c(=O)[nH]c1=O (stereo not given)
SNB-19 CNS
  TGI: 197 µM
HCT-15 colon
  TGI: 214 µM
IGROV1 ovarian
  TGI: 320 µM
HL-60(TB) leukemia
  TGI: 46.6 µM
UACC-257 melanoma
  TGI: 208 µM
MALME-3M melanoma
  TGI: 76.6 µM
MOLT-4 leukemia
  TGI: 59.1 µM
HOP-62 NSCLC
  TGI: 246 µM
K-562 leukemia
  TGI: 111 µM

## CC(C)(C)N=C1C(=O)C2(C)CCC1C2(C)C (stereo not given)
SNB-19 CNS
  TGI: > 100 µM
HCT-15 colon
  TGI: > 100 µM
IGROV1 ovarian
  TGI: > 100 µM
UACC-257 melanoma
  TGI: > 100 µM
MALME-3M melanoma
  TGI: > 100 µM
HOP-62 NSCLC
  TGI: > 100 µM
K-562 leukemia
  TGI: > 100 µM

## C=CCCCN(C(=O)c1ccccc1)c1ccc(C(=O)OC)o1
SNB-19 CNS
  TGI: > 100 µM
HCT-15 colon
  TGI: > 100 µM
IGROV1 ovarian
  TGI: > 100 µM
HL-60(TB) leukemia
  TGI: > 100 µM
UACC-257 melanoma
  TGI: > 100 µM
MALME-3M melanoma
  TGI: > 100 µM
MOLT-4 leukemia
  TGI: > 100 µM
HOP-62 NSCLC
  TGI: > 100 µM
MDA-N
  TGI: > 100 µM

## CCOC(=O)C1=C(N2CCCC2)C(=O)C(C(=O)OCC)C1 (stereo not given)
SNB-19 CNS
  TGI: > 100 µM
HCT-15 colon
  TGI: > 100 µM
IGROV1 ovarian
  TGI: > 100 µM
UACC-257 melanoma
  TGI: > 100 µM
MALME-3M melanoma
  TGI: > 100 µM
MOLT-4 leukemia
  TGI: > 100 µM
HOP-62 NSCLC
  TGI: > 100 µM
K-562 leukemia
  TGI: > 100 µM
MDA-N
  TGI: > 100 µM

## CC(C)(C1=NC(C(C)(C)C)CO1)C1=N[C@@H](C(C)(C)C)CO1 (stereo not given in full)
SNB-19 CNS
  TGI: > 100 µM
HCT-15 colon
  TGI: > 100 µM
IGROV1 ovarian
  TGI: > 100 µM
HL-60(TB) leukemia
  TGI: > 100 µM
UACC-257 melanoma
  TGI: > 100 µM
MALME-3M melanoma
  TGI: > 100 µM
MOLT-4 leukemia
  TGI: > 100 µM
HOP-62 NSCLC
  TGI: > 100 µM
K-562 leukemia
  TGI: > 100 µM
